Values quoted from earlier work, collected in US11357716B2, “Sunscreen compositions” (Kobo Products, Inc., priority 2016, dated 2022).

Experiments:
[1] = Active: BEMT 4%
[2] = Active: BEMT 4%; remark: listed apart in the source

**Q.** What does the source list for `CCCCC(CC)COc1ccc(-c2nc(-c3ccc(OC)cc3)nc(-c3ccc(OCC(CC)CCCC)cc3O)n2)c(O)c1` (centres unmarked) [BEMT, bis-ethylhexyloxyphenol methoxyphenyl triazine]?
**A.** UVA-PF in vivo [1]: in vivo = 7.6 ± 2.2; SPF in vivo [2]: in vivo = 7.3 ± 1.2
